# Like-named read-outs stand apart in the source and are kept apart here. Marks after values point to notes of the source that are not given here. Where no end group is shown, it is not given here.
# B1: natural RNase A: bovine Ribonuclease A, unconjugated (protein)
# chain: KETAAAKFERQHMDSSTSAASSSNYCNQMMKSRNLTKDRCKPVNTFVHESLADVQAVCSQKNVACKNGQTNCYQSYSTMSITDCRETGSSKYPNCAYKTTQANKHIIVACEGNPYVPVHFDASV
# How the values were obtained:
# K562 R = assay: Growth inhibition by peptide-doxorubicin conjugates (MTT, 48 hours); type: cell-based; details: Homo sapiens, K-562R, read-out: molar concentration giving 50% inhibition of the growth of the cells, resistant to doxorubicin
# Protocol: (§1) To evaluate the biological activity of peptide-doxorubicin conjugates, the inhibition of the growth of tumor cells in culture is measured.
# (§2) The cells are sown the night before in 96-well plates at the rate of 10^3 cells per well.
# (§3) It appears that, in vitro, the sensitivity of the cells to the peptide-doxorubicin conjugates is on the same order of magnitude as that of natural doxorubicin. The lines resistant to doxorubicin (K562R and MCF7R) require a greater concentration of doxorubicin.
# MCF7R = assay: as above; type: cell-based; details: Homo sapiens, read-out: molar concentration giving 50% inhibition of the growth of the cells, resistant to doxorubicin
# Protocol: as §1, §2, §3
# HH9 tumors = assay: In vivo anti-tumor activity of peptide-doxorubicin conjugates; set-up: species or system nude mice; details: day 60, total of 120 μg of doxorubicin or the equivalent, peritumoral injection
# Protocol: Nude mice are injected with 3×10^6 HH9 cells subcutaneously in the side. On day 19 after the cell implant, the tumors are measured, and 4 groups of 6 mice are formed that receive by peritumoral injection either NaCl, or natural doxorubicin, or 1047-doxorubicin, or HBP1-doxorubicin conjugates at the rate of 30 μg of doxorubicin or the equivalent of conjugates every two weeks. The tumors are measured and their volume calculated.
# HH9 = assay: Growth inhibition by peptide-doxorubicin conjugates (MTT, 48 hours); type: cell-based; details: Homo sapiens, read-out: molar concentration giving 50% inhibition of the growth of the cells
# Protocol: as §1, §2
# H1299 = assay: as above; type: cell-based; details: Homo sapiens, NCI-H1299, read-out: molar concentration giving 50% inhibition of the growth of the cells
# Protocol: as §1, §2
# [1] = In vivo toxicity of peptide-doxorubicin conjugates (weight loss); details: for Weight loss: relative to mice that received NaCl; for Weight of the mice: intravenous, peptide-doxorubicin conjugates
# Protocol: (§9) Injection of doxorubicin or doxorubicin-peptide by the intravenous route makes it possible to compare the toxicity of the different preparations. The estimate is made by the weight loss of the mice (5 mice per group). Two experiments were done: • Experiment 1: The mice received 200 μg per injection at 3-day intervals, or 600 μg of doxorubicin or the equivalent peptide-doxorubicin in all. The mice were weighed the day after the last injection. • Experiment 2: The mice received 2 injections of 200 -μg of doxorubicin or the peptide-doxorubicin equivalent at one week intervals, or 400 μg in all, and were weighed the day after the last injection.
# (§10) The average weight loss is calculated in relation to the average weight of the mice that received NaCl.
# B16.F10 = assay: Growth inhibition by peptide-doxorubicin conjugates (MTT, 48 hours); type: cell-based, murine; details: Mus musculus, read-out: molar concentration giving 50% inhibition of the growth of the cells
# Protocol: as §1, §2
# [2] = ELISA fixation of biotinylated peptides on sensitized plates; type: binding; details: read-out: avidity (Kd), quantity of peptides necessary to obtain 50% fixation, Chondroitin C; Table 5
# [3] = as above; type: binding; details: read-out: avidity (Kd), quantity of peptides necessary to obtain 50% fixation, Chondroitin B; Table 5
# H1299 cells [4] = assay: Internalization of covalent peptide-peroxidase conjugates; type: cell-based, human; details: H1299, 0.2 μg/ml conjugate, 2 hours
# Outline: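 Peptides coupled via C-terminal cysteine to maleimide-activated peroxidase; uncoupled peptide removed by ultrafiltration. H1299 cells incubated 2 h with increasing conjugate concentrations, washed, lysed; internalized peptide quantified from lysate peroxidase against a conjugate standard curve, as pg/10^3 cells.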
# 3T3 = assay: as above; type: cell-based, mouse; details: 2 hours
# Protocol: (§4) To evaluate more directly the penetration of the peptides, avoiding the avidin-peroxidase bias, some of the peptides in sequences SEQ ID NO: 25 to 48 were conjugated covalently with cysteine in the C-terminal position of the peptide to peroxidase. The peptides were coupled with peroxidase in the following way:
# (§5) One mg of peroxidase activated with maleimide (Sigma) in 100 μl of sodium phosphate buffer, NaCl 0.15 M, EDTA 5 mM, had 1 mg of peptide added to it. After 2 hours at laboratory temperature, β-mercaptoethanol is added to a final concentration of 1.5 mM for 15 minutes. The uncoupled peptide is eliminated by centrifugation on ultrafiltration membranes (cut-off threshold=30,000 Daltons, Sartorius), followed by three washings in sodium phosphate buffer 0.1 M, pH 7.4 containing 0.15 M NaCl.
# (§6) It appears that the higher the concentration of peptide-peroxidase conjugate in the culture medium, the more the quantity internalized increases. To compare the penetration of the conjugates by cell type, the cells from different lines were incubated with 0.2 μg/ml of peptide-peroxidase conjugate for 2 hours, and the quantity of peroxidase dosed in the lysates. Table 9 and Table 9B below give the results expressed in pg/10^3 cells. The quantity of each peptide internalized in the different lines generally varies only from single to double.
# Caco-2 cell monolayers = assay: Integrity of the Caco-2 barrier model in presence of HBP peptides; details: Table 30; 30 μg/ml, 8 hours in HBSS; three inserts; listed as HBP7
# Protocol: Caco-2 cells were seeded at a density of 160000 cells/cm^2 on a polyethylene terephtalate microporous membranes, previously coated with bovine dermal collagen, in a synthetic serum-free medium (Basal Defined Medium, BDM). Culture medium was changed three times a week and cells were maintained at 37° C. in a an atmosphere of 5% CO2 for 18 days. As a negative control to check the integrity of the Caco-2 barrier, 10^6 dpm/ml D-[^14C]-mannitol was used. […] Other controls included D-[^14C]-mannitol/L-[^3H]-Proline+HBP7 30 μg/ml and D-[^14C]-mannitol/L-[^3H]-proline+HBP10 30 μg/ml.
# Trans-epithelial transport experiments were carried out. The trans-epithelial electrical resistance (TEER) was measured to check the integrity of the Caco-2 cell monolayers. The cell monolayers were preincubated in Hanks' balanced salt solution (HBSS, 5 mM glucose, supplemented with 10 mM Hepes) for 8 hours at 37° C. At 1, 2, 4 and 8 hours, 100 μl of medium was collected from the lower compartment and replaced by fresh HBSS. At the end of the experiment (8 hours), the cell monolayers were washed three times with PBS and TEER was measured.
# H1299 cells [5] = assay: Inhibition of peptide-peroxidase internalization by drugs or 4° C.; type: cell-based, human; details: peptide-peroxidase 0.2 μg/ml, 2 hours
# Protocol: To understand the biological mechanisms whereby the peptides penetrate into the cells and their compartmentalization, experiments are done with drugs whose action on certain cell compartments is specific. The peptide-peroxidases were incubated with H1299 cells at a concentration of 0.2 μg/ml for 2 hours in the presence, or not, of a drug. The cells were lysed, and the peroxidase dosed in the cellular lysate.
# [6] = ELISA fixation of biotinylated peptides on sensitized plates; type: binding; details: read-out: avidity (Kd), quantity of peptides necessary to obtain 50% fixation, Chondroitin A; Table 5
# [7] = tested on: gram-positive and gram-negative bacterial strains; assay: Antibacterial activity of cationic peptides, summary over strains; type: cell-based; details: summary of Table 29
# Protocol: (§7) The gram-positive bacterial strains are: Enterococcus faecalis (ATCC 29212), and Staphylococcus aureus (ATCC 25923) and the gram-negative strains are: Escherichia coli (ATCC 25922), Pseudomonas aeruginosa (ATCC 27853) and Salmonella typhimurim (clinical isolate), Salmonella typhiTy2 (WHO). The bacteria are cultured with shaking all night at 37° C., then recultured at a dilution of 1:50 in some fresh Luria-Bertani (LB) medium for 2 hours. The bacterial concentration is adjusted to […], and 50 μl is distributed in 96-well plates with an equal volume of peptides diluted half and half (256-0.5 μg/ml) in LB medium. […] To determine the minimum bactericide concentration, 10 μl from each well is spread on gelose plates in LB medium.
# However, when peptide HPB13 (SEQ ID NO: 38) is coupled with peptide SEQ ID NO: 24, it enhances its activity by a factor of 50 to 100 (peptide SEQ ID NO: 45). […] None these peptides are active on gram-positive bacteria.
# HeLa = assay: Internalization of covalent peptide-peroxidase conjugates; type: cell-based, human; details: 2 hours
# Protocol: as §4, §5, §6
# [8] = ELISA fixation of biotinylated peptides on sensitized plates; type: binding; details: read-out: avidity (Kd), quantity of peptides necessary to obtain 50% fixation, Heparin; Table 5
# Protocol: The capacity of peptides SEQ ID NO: 1 to 21 to attach themselves to DNA and heparin is evaluated on ELISA plates sensitized with DNA or heparin. Dilutions of biotinylated peptides are deposited on the plates and their fixation is shown using streptavidin conjugated with peroxidase. […] The avidity of each of the peptides for DNA or heparin is evaluated by the quantity (×10^−6 M) of peptides necessary to obtain 50% fixation.
# [9] = tested on: Salmonella typhimurim (clinical isolate); assay: Antibacterial activity of cationic peptides (MBC); type: cell-based; details: S. typhimurium
# Protocol: as §7
# (§8) The results are expressed as the peptide concentration in MBC (μM).
# [10] = mouse, in vivo, iv
# Protocol: as §9, §10
# [11] = tested on: Salmonella typhiTy2 (WHO); assay: microbe, parasite or virus in culture; type: cell-based, S. typhi-Ty2; details: S. typhi-Ty2
# Protocol: as §7, §8
# [12] = tested on: Escherichia coli (ATCC 25922); assay: microbe, parasite or virus in culture; type: cell-based; details: ATCC 25922; read-out: MBC
# Protocol: as §7, §8
# [13] = tested on: Pseudomonas aeruginosa (ATCC 27853); assay: microbe, parasite or virus in culture; type: cell-based; details: ATCC 27853
# Protocol: as §7, §8
# [14] = tested on: Enterococcus faecalis (ATCC 29212); assay: microbe, parasite or virus in culture; type: cell-based; details: ATCC 29212
# Protocol: as §7, §8
# [15] = tested on: Staphylococcus aureus (ATCC 25923); assay: microbe, parasite or virus in culture; type: cell-based; details: ATCC 25923
# Protocol: as §7, §8
# [16] = tested on: Escherischia coli (ATCC25922); assay: Activity of lysozyme coupled to peptides (MBC); type: cell-based, Escherichia coli; details: E. coli
# Protocol: The […] bacterial strain Escherischia coli (ATCC25922) is cultured until the semi-logarithmic phase in Luria-Bertani (LB) medium. The bacteria are collected by centrifugation and resuspended in 1% bacto-peptone medium at a concentration of 5×10^5 cfu/ml (colony forming unit/ml). Lysozyme or the peptide-lysozyme conjugates are diluted half and half (256 to 0.5 μg/ml) in bacto-peptone medium, and 50 μl is distributed in 96-well plates. 50 μl of the bacterial dilution is then added to each well. After 16 hours of incubation at 37° C., 10 μl from each well is smeared on gelose plates in LB medium.
# Table 28 reports the inhibition of the growth of E. coli (MBC μg/ml).
# HeLa cells = assay: Penetration of RNase A transported by peptide-F(ab′)2 anti-RNase transporter; type: cell-based, human
# Protocol: Two mg of antibody F(ab′)2 anti-RNase in 1 ml of potassium phosphate buffer 0.1 M pH 7.4 are added to 110 μg of SMCC [succinimidyl 4-(N-maleimidomethyl)cyclohexane-1-carboxylate] in 11 μl of dimethylsulfoxide. The solution is incubated for 45 minutes at laboratory temperature. The excess reagent is eliminated by centrifugation on ultrafiltration membranes (cutoff threshold=10,000 Da, Vivascience), followed by three washings in sodium phosphate buffer 10 mM, pH 7 containing 01.5 M of NaCl and 5 mM of EDTA. The coupling with the peptide is then done in a molar ratio of 6 peptides to 1 F(ab′)2 in the sodium phosphate buffer 10 mM, pH 7, containing 0.5 M of NaCl and 5 mM of EDTA for three hours at laboratory temperature. Then, the excess uncoupled peptide is totally eliminated by centrifugation on ultrafiltration membranes, as in the preceding step. These transporters [anti-RNase peptide-F(ab′)2)] are added to ribonuclease A in some complete culture medium, and the solution is incubated for 1 hour at laboratory temperature. The molar ratio of this reaction is 2 RNase/1 F(ab′)2. […]
# To measure the quantity of RNase A internalized, the cells are trypsinized, transferred into microtubes and counted. […]
# Protocol for HH9 cells: The cells are sown at night on plates with 96 wells, at the rate of 10^3 cells per well.
# The next day, the supernatant is suctioned off and replaced with 100 μl of medium containing succession dilutions of RNase A-vector or natural RNase A and the culture continued for 72 hours.
# The wells are then filled with 50 μl of a solution of MTT (3-(4,5-dimethylthiazol-2-yl)-2,5-diphenyl tetrazolium bromide) at 1 mg/ml in the culture medium and cultivated for 4 hours.
# The supernatant is removed, and 100 μl of dimethylsulfoxide is added to the wells. After the crystals dissolve, the coloration is read at 550 nm.
# The results are calculated as a percentage of the average optic density obtained in the wells of cells containing the dilutions of the samples being tested and the optical density of the wells that received only medium.
# The different peptide-RNase conjugates were tested on varied cell lines.
molecule,measurement,setting,value
"COc1cccc2c1C(=O)c1c(O)c3c(c(O)c1C2=O)C[C@@](O)(C(=O)CO)C[C@@H]3O[C@H]1C[C@H](N)[C@H](O)[C@H](C)O1 [Doxorubicin (natural), Doxorubicin]",IC50,K562 R,3000 nM
same,IC50,MCF7R,200000 nM
same,tumor growth inhibition,HH9 tumors,79%
same,IC50,HH9,300 nM
same,IC50,H1299,300 nM
same,Weight loss,[1]; Exp. 1: 600 μg in all,31* %
same,Weight loss,"[1]; Exp. 1: 600 μg in all, listed as natural doxorubicin",31%
same,Weight of the mice,[1]; Exp. 1: 600 μg of doxorubicin or equivalent in all,16.06
same,Weight loss,[1]; Exp. 2: 400 μg in all,15%
same,Weight of the mice,[1]; Exp. 2: 400 μg of doxorubicin or equivalent in all,26.7
same,IC50,B16.F10,100 nM
GKRKKKGKLGKKRDP [SEQ ID NO: 30],Kd,[2],19 nM
same,Kd,[3],58 nM
same,Internalization of Peptide-peroxidase,H1299 cells [4]; Table 9,22.5 pg/10^3 cells
same,Internalization of Peptide-peroxidase,H1299 cells [4]; Table 9B,63.3 pg/10^3 cells
same,Internalization of Peptide-peroxidase,"3T3; Table 9, 0.2 μg/ml conjugate",48.8 pg/10^3 cells
same,Internalization of Peptide-peroxidase,"3T3; Table 9B, 0.2 μg/ml conjugate",44.2 pg/10^3 cells
same,TEER after incubation,Caco-2 cell monolayers,145 Ω · cm^2
same,percentage inhibition of peptide internalization,H1299 cells [5]; Ammonium chloride (50 mM),70%
same,percentage inhibition of peptide internalization,H1299 cells [5]; Chloroquin (100 μM),79%
same,percentage inhibition of peptide internalization,H1299 cells [5]; Genistein (200 μM),68%
same,percentage inhibition of peptide internalization,H1299 cells [5]; Sodium chloride (80 mM),69%
same,percentage inhibition of peptide internalization,H1299 cells [5]; Temperature (4° C.),100%
same,Kd,[6],78 nM
same,bactericide / anti-microbial activity,[7],no anti-microbial activity
same,Internalization of Peptide-peroxidase,"HeLa; Table 9, 0.2 μg/ml conjugate",11 pg/10^3 cells
same,Internalization of Peptide-peroxidase,"HeLa; Table 9B, 0.2 μg/ml conjugate",3.6 pg/10^3 cells
same,Kd,[8],54 nM
KHLKKHLKKHLK [SEQ ID NO: 38],MBC,[9],>170 µM
same,Weight of the mice,[10],30
same,MBC,[11],>170 µM
same,MBC,[12],>170 µM
same,MBC,[13],>170 µM
same,MBC,[14],>170 µM
same,MBC,[15],>170 µM
"Natural lysozyme: lysozyme, a muraminidase, unconjugated","minimal bactericide concentration (MBC), inhibits 75% of the growth",[16],>256 µg/mL
B1,Quantity of RNase internalized,HeLa cells,0 pg/10^4 cells
same,cytotoxic activity,HH9 cells,no cytotoxic activity

# From patent US8003595B2, “Amino acid sequences facilitating penetration of a substance of interest into cells and/or cell nuclei” (Cellectis, priority 2000, dated 2011)
